Source: article PMC2864305 (Biochemistry, 2010)

Biological target: T1, RePC (Rhizobium etli pyruvate carboxylase) (Rhizobium etli, UniProt Q2K340)
T1 sequence (Q2K340 1-1154): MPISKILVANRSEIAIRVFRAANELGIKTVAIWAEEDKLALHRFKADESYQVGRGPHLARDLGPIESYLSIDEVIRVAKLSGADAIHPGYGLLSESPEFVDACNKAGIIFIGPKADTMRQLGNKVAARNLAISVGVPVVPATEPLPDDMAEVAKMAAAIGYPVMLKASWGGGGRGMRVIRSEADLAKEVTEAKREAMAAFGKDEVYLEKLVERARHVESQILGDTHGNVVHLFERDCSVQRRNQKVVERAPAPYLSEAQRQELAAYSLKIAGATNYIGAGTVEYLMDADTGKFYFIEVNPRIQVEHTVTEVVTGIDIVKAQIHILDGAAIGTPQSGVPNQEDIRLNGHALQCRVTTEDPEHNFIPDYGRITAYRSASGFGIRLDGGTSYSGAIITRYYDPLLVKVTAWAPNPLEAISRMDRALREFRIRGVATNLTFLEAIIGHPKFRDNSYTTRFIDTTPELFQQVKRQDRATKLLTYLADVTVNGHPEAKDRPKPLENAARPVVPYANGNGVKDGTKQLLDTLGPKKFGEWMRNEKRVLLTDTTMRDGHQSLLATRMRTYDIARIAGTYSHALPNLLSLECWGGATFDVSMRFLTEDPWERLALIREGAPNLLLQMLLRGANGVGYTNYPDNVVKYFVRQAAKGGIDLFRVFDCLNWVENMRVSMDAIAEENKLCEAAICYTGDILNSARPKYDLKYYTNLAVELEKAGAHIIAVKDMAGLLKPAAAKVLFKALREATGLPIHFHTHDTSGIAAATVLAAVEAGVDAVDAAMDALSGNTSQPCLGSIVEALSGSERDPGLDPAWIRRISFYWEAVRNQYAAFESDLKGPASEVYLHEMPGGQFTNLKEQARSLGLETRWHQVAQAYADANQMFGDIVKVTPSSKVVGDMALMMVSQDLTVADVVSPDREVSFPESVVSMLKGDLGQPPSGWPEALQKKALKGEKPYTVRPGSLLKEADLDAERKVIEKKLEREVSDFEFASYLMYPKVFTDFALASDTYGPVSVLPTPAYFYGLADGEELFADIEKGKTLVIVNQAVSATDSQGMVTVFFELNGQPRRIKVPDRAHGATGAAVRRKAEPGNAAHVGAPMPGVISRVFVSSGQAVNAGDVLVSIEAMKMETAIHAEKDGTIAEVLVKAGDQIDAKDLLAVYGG
Format: biochemical
Conditions: read-out: % inhibition at 20 mM

NC(=O)C(=O)O [oxamate]
inhibition at 20000 µM: 68%
